Where two headings read alike, the source gives them in different places.
Columns and labels:
[1] = test system: P493-6 (myc “on”) cells; experiment: Cell Proliferation Assay; type: cell-based; settings: 72 hrs incubation
Protocol: P493-6 (myc “on”) cells were maintained in growth media (RPMI-1640, 10% FBS, 2 mM glutamine, 100 units/ml Penicillin and 100 μg/ml streptomycin) at 37° C. with 5% CO2. For compound assay, P493-6 cells were plated in 96-well V-bottom plates on the day of compound addition in 50 μl of growth media at a cell density of 200,000 cells/ml (10,000 cells/well). Compounds were serially diluted in 100% DMSO at 200-times the final concentration. Compounds were diluted 100-fold into growth media and then 50 μl of this mixture was added to cell plates making the final concentration of DMSO 0.5%. Cells were incubated with compound for 72 hrs at 37° C. with 5% CO2 and analyzed for antiproliferative effects either by Cell Titer Glo (Promega) or FACS analysis using the Viacount (Millipore) kit on the Guava instrument.

[2] = test system: HCC827 lung cancer cell lines; experiment: Combination cell viability (CellTiter-Glo), CB-839 with osimertinib; type: cell-based; settings: FIG. 4a, various concentrations of CB-839, 72 hours
Protocol: (§1) Cells were treated with a dose titration of either CB-839, an anti-cancer agent, osimertinib alone or a mixture of CB-839 and osimertinib for 72 hours in growth media. At the end of the incubation, cell viability was measured using CellTiter-Glo as per manufacturer's protocol (Promega, Madison, Wis.). Cell proliferation for all compound treatments is represented with bar graphs, where luminescent output, Relative Light Units (RLU), correlates with relative cell number. Combination indices were calculated using CalcuSyn software (biosoft.com) and reported for individual mixtures of CB-839 and osimertinib.

[3] = test system: H1975 lung cancer cell lines; experiment: as above; type: cell-based; settings: FIG. 4b, various concentrations of CB-839, 72 hours
Protocol: as §1

[4] = test system: estrogen receptor positive (ER+) breast cancer; experiment: Combination cell viability (CellTiter-Glo), CB-839 with palbociclib; type: cell-based; settings: FIG. 2a; combination with CDK 4/6 inhibitor palbociclib, various concentrations of CB-839, 72 hours
Protocol: as §1, with “agent,” for “agent, osimertinib alone”, “mixture thereof” for “mixture of CB-839 and osimertinib”, “hours (for palbociclib or talazoparib) or 6 days (for niraparib)” for “hours”, “with viable” for “with relative”, “and each agent.” for “and osimertinib.”

[5] = test system: HCC1569 (breast) cancer cell lines; experiment: as above; type: cell-based; settings: FIG. 1a; combination with CDK 4/6 inhibitor palbociclib, various concentrations of CB-839, 72 hours
Protocol: as §1, with “agent,” for “agent, osimertinib alone”, “mixture thereof” for “mixture of CB-839 and osimertinib”, “hours (for palbociclib or talazoparib) or 6 days (for niraparib)” for “hours”, “with viable” for “with relative”, “and each agent.” for “and osimertinib.”

[6] = test system: MCF-7 breast adenocarcinoma cells; experiment: MCF-7 xenograft, CB-839 and palbociclib; type: in vivo; settings: combination CB-839 200 mg/kg PO BID and palbociclib orally once daily; scid/bg mice; FIG. 2b
Protocol: Female scid/bg mice were implanted subcutaneously with 17B-estradiol sustained release pellets on Day −1. The following day mice were implanted subcutaneously with 5×10^6 MCF-7 breast adenocarcinoma cells mixed 1:1 with matrigel. On Day 7 post-implant, mice were randomized into groups of n=10/group to receive the following: 1) Vehicle (25% hydroxypropyl-B-cyclodextrin) orally BID; 2) CB-839 at 200 mg/kg orally BID; 3) Palbociclib at 50 mg/kg orally once daily; or 4) CB-839 at 200 mg/kg PO BID and Palbociclib orally once daily. Tumors were measured with calipers three times per week and tumor volume calculated using the formula tumor volume (mm^3)=(a×b^2/2) where ‘b’ is the smallest diameter and ‘a’ is the largest perpendicular diameter. ****P<0.0001 (ANOVA) versus both monotherapies.

[7] = test system: UWB1.289 ovarian cancer cell lines; experiment: Combination cell viability (CellTiter-Glo), CB-839 with niraparib; type: cell-based; settings: FIG. 3a; combination with PARP inhibitor niraparib, various concentrations of CB-839, 6 days
Protocol: as §1, with “agent,” for “agent, osimertinib alone”, “mixture thereof” for “mixture of CB-839 and osimertinib”, “hours (for palbociclib or talazoparib) or 6 days (for niraparib)” for “hours”, “with viable” for “with relative”, “and each agent.” for “and osimertinib.”

[8] = test system: HCC1395 breast cancer cell lines; experiment: Combination cell viability (CellTiter-Glo), CB-839 with talazoparib; type: cell-based; settings: FIG. 3b; combination with PARP inhibitor talazoparib, various concentrations of CB-839, 72 hours
Protocol: as §1, with “agent,” for “agent, osimertinib alone”, “mixture thereof” for “mixture of CB-839 and osimertinib”, “hours (for palbociclib or talazoparib) or 6 days (for niraparib)” for “hours”, “with viable” for “with relative”, “and each agent.” for “and osimertinib.”

## [2H]C([2H])(CCc1nnc(N)s1)C([2H])([2H])c1ccc(NC(=O)Cc2cccc(OC(F)(F)F)c2)nn1 [Compound 726]
[1]; P493-6, read-out: Cell prolif P493 72h IC50
  IC50: 610 nM

## [2H]C([2H])(CCc1nnc(NC(=O)Cc2ccccn2)s1)C([2H])([2H])c1ccc(NC(=O)Cc2cccc(OC(F)(F)F)c2)nn1 [Compound 727]
[1]; read-out: Cell prolif P493 72h IC50
  IC50: 12 nM

## O=C(Cc1cccc(OC(F)(F)F)c1)Nc1ccc(CCCCc2nnc(NC(=O)Cc3ccccn3)s2)nn1 [CB-839]
[2]
  synergy between CB-839 and osimertinib: synergy
[3]
  synergy between CB-839 and osimertinib: synergy
[4]
  synergy between CB-839 and palbociclib: synergy
[5]
  synergy between CB-839 and palbociclib: synergy
[6]
  tumor volume, P (ANOVA) versus both monotherapies: < 0.0001
[7]
  synergy between CB-839 and niraparib: synergy
[8]
  synergy between CB-839 and talazoparib: synergy

Source: patent publication US20200038398A1, “COMBINATION THERAPY WITH GLUTAMINASE INHIBITORS” (Calithera Biosciences, Inc., priority 2017, published 2020)
